Source: patent US9951049B2, “Pyrazole linked benzimidazole conjugates and a process for preparation thereof” (Council of Scientific & Industrial Reseach, priority 2014, dated 2018)

Experiments:
[1] = test system: fifty six human tumor cell lines; experiment: NCI human tumor cell line screen (48 h, SRB), all cell lines; conditions: various cell lines
Melanoma cell lines = experiment: NCI SRB screen, Melanoma panel average; conditions: Homo sapiens, 48 h, read-out: Log10 GI50 (converted)
Breast Cancer cell lines = experiment: NCI SRB screen, Breast Cancer panel average; conditions: Homo sapiens, 48 h, read-out: Log10 GI50 (converted)
[2] = test system: Ovarian cancer cell lines; experiment: NCI SRB screen, Ovarian panel average; conditions: Homo sapiens, 48 h, read-out: Log10 GI50 (converted)
Colon cancer cell lines = experiment: NCI SRB screen, Colon panel average; conditions: Homo sapiens, 48 h, read-out: Log10 GI50 (converted)
[3] = test system: Non-small-cell lung cancer cell lines; experiment: NCI SRB screen, Non-small-cell lung panel average; conditions: Homo sapiens, 48 h, read-out: Log10 GI50 (converted)
Leukemia cell lines = experiment: NCI SRB screen, Leukemia panel average; conditions: Homo sapiens, 48 h, read-out: Log10 GI50 (converted)
Renal cancer cell lines = experiment: NCI SRB screen, Renal panel average; conditions: Homo sapiens, 48 h, read-out: Log10 GI50 (converted)
[4] = test system: Prostate cancer cell lines; experiment: NCI SRB screen, Prostate panel average; conditions: Homo sapiens, 48 h, read-out: Log10 GI50 (converted)
CNS cancer cell lines = experiment: NCI SRB screen, CNS panel average; conditions: Homo sapiens, 48 h, read-out: Log10 GI50 (converted)

With `COc1ccc(-c2cc(-c3nc4cc(F)ccc4[nH]3)[nH]n2)c(OC)c1` [7e, 2-(3-(2,4-dimethoxyphenyl)-1H-pyrazol-5-yl)-5-fluoro-1H-benzo[d]imidazole] the “mean graph pattern: profile of activity and selectivity” value [1] was “an interesting profile of activity and selectivity”.

With `COc1ccc(-c2cc(-c3nc4cc(Cl)ccc4[nH]3)[nH]n2)c(OC)c1` [8e, 5-chloro-2-(3-(2,4-dimethoxyphenyl)-1H-pyrazol-5-yl)-1H-benzo[d]imidazole] the “mean graph pattern: profile of activity and selectivity” value [1] was “an interesting profile of activity and selectivity”.

In the case of `COc1ccc(-c2cc(-c3nc4cc(Cl)c(Cl)cc4[nH]3)[nH]n2)c(OC)c1` [10e, 5,6-dichloro-2-(3-(2,4-dimethoxyphenyl)-1H-pyrazol-5-yl)-1H-benzo[d]imidazole], the “mean graph pattern: profile of activity and selectivity” value [1] was “an interesting profile of activity and selectivity”.

With `COc1ccc(-c2cc(-c3nc4cc(C(F)(F)F)ccc4[nH]3)[nH]n2)c(OC)c1` [11e, 2-(3-(2,4-dimethoxyphenyl)-1H-pyrazol-5-yl)-5-(trifluoromethyl)-1H-benzo[d]imidazole] the “mean graph pattern: profile of activity and selectivity” value [1] was “an interesting profile of activity and selectivity”.

In the case of `COc1ccc(-c2cc(-c3nc4cc([N+](=O)[O-])ccc4[nH]3)[nH]n2)c(OC)c1` [12e, 2-(3-(2,4-dimethoxyphenyl)-1H-pyrazol-5-yl)-5-nitro-1H-benzo[d]imidazole], the “mean graph pattern: profile of activity and selectivity” value [1] was “an interesting profile of activity and selectivity”.

For `COc1ccc(-c2cc(-c3nc4cc(Cl)c(F)cc4[nH]3)[nH]n2)c(OC)c1` [13e, 5-chloro-2-(3-(2,4-dimethoxyphenyl)-1H-pyrazol-5-yl)-6-fluoro-1H-benzo[d]imidazole], the “mean graph pattern: profile of activity and selectivity” value [1] was “an interesting profile of activity and selectivity”.

`COC(=O)Nc1nc2ccc(C(=O)c3cccs3)cc2[nH]1` [Nocodazole, reference compound] was tested, and the GI50 (Melanoma cell lines) was 0.0224 µM, the GI50 (Breast Cancer cell lines) was 0.155 µM and the GI50 [2] was 0.145 µM. The GI50 (Colon cancer cell lines) was 0.0178 µM, the GI50 [3] was 0.0204 µM and the GI50 (Leukemia cell lines) was 0.0123 µM. For the same molecule, the GI50 (Renal cancer cell lines) was 0.107 µM, the GI50 [4] was 0.0145 µM and the GI50 (CNS cancer cell lines) was 0.0229 µM.
